From patent US20240317721A1, “PYRAZOLYL DERIVATIVES AS INHIBITORS OF THE KRAS MUTANT PROTEIN” (NOVARTIS AG, priority 2021, published 2024)

The compounds below were run against KRasG12C (M1-K169, biotinylated on the N-terminus) (Homo sapiens (Human), UniProt P01116, G12C) (assay: Covalent competition assay: scintillation proximity assay (SPA) quantifying covalent modification of KRASG12C). Conditions: competition with radiolabeled covalent probe (Compound B/Compound A), 2 hours incubation, 10 nM KRasG12C.
Assay type: binding
Summary of the method: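 Scintillation proximity readout after streptavidin bead capture (30 min) of biotinylated KRasG12C(M1-K169):GDP, 10 nM final, which was covalently labelled over 2 h by 25 nM radio-probe plus 475 nM cold probe unless blocked by compound.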

SMILES	IC50
C=CC(=O)N1CC2(CC(n3nc(N4CC[C@@H](CN5CCN(C6COC6)CC5)CC4(C)C)c(-c4c(C)c(Cl)cc5[nH]ncc45)c3C)C2)C1 (single isomer, unassigned) [Example 244b]	0.006 µM
C=CC(=O)N1CC2(CC(n3nc(N4CC[C@@H](CN5CCN(C6COC6)CC5)CC4(C)C)c(-c4c(Cl)c(F)cc5[nH]ncc45)c3C)C2)C1 (single isomer, unassigned) [Example 245a]	1.8 µM
C=CC(=O)N1CC2(CC(n3nc(N4CC[C@@H](CN5CCN(C6COC6)CC5)CC4(C)C)c(-c4c(Cl)c(F)cc5[nH]ncc45)c3C)C2)C1 (single isomer, unassigned) [Example 245b]	0.014 µM
C=CC(=O)N1CC2(CC(n3nc(N4CC[C@@H](CN5CCN(C6COC6)CC5)CC4(C)C)c(-c4c(Cl)c(C)cc5[nH]ncc45)c3C)C2)C1 (single isomer, unassigned) [Example 246a]	> 5 µM
C=CC(=O)N1CC2(CC(n3nc(N4CC[C@@H](CN5CCN(C6COC6)CC5)CC4(C)C)c(-c4c(Cl)c(C)cc5[nH]ncc45)c3C)C2)C1 (single isomer, unassigned) [Example 246b]	0.015 µM
C=CC(=O)N1CC2(CC(n3nc(N4CC[C@@H](CN5CCO[C@@H](CO)C5)CC4(C)C)c(-c4c(Cl)c(Cl)cc5[nH]ncc45)c3C)C2)C1 (single isomer, unassigned) [Example 247a]	1.4 µM
C=CC(=O)N1CC2(CC(n3nc(N4CC[C@@H](CN5CCO[C@@H](CO)C5)CC4(C)C)c(-c4c(Cl)c(Cl)cc5[nH]ncc45)c3C)C2)C1 (single isomer, unassigned) [Example 247b]	0.009 µM
C=CC(=O)N1CC2(CC(n3nc(N4CC[C@@H](CN5CC6(C5)CS(=O)(=O)C6)CC4(C)C)c(-c4c(Cl)c(Cl)cc5[nH]ncc45)c3C)C2)C1 (single isomer, unassigned) [Example 248a]	> 5 µM
C=CC(=O)N1CC2(CC(n3nc(N4CC[C@@H](CN5CC6(C5)CS(=O)(=O)C6)CC4(C)C)c(-c4c(Cl)c(Cl)cc5[nH]ncc45)c3C)C2)C1 (single isomer, unassigned) [Example 248b]	0.009 µM
C=CC(=O)N1CC2(CC(n3nc(N4CC[C@@H](CN5C[C@@H]6C[C@H]5CS6(=O)=O)CC4(C)C)c(-c4c(Cl)c(Cl)cc5[nH]ncc45)c3C)C2)C1 (single isomer, unassigned) [Example 249a]	> 5 µM
C=CC(=O)N1CC2(CC(n3nc(N4CC[C@@H](CN5C[C@@H]6C[C@H]5CS6(=O)=O)CC4(C)C)c(-c4c(Cl)c(Cl)cc5[nH]ncc45)c3C)C2)C1 (single isomer, unassigned) [Example 249b]	0.013 µM
C=CC(=O)N1CC2(CC(n3nc(N4CC[C@@H](CN5CCn6cnnc6C5)CC4(C)C)c(-c4c(Cl)c(Cl)cc5[nH]ncc45)c3C)C2)C1 (single isomer, unassigned) [Example 250a]	0.405 µM
C=CC(=O)N1CC2(CC(n3nc(N4CC[C@@H](CN5CCn6cnnc6C5)CC4(C)C)c(-c4c(Cl)c(Cl)cc5[nH]ncc45)c3C)C2)C1 (single isomer, unassigned) [Example 250b]	0.008 µM
C=CC(=O)N1CC2(CC(n3nc(N4CC[C@@H](CN5CCN(CCO)C(=O)C5)CC4(C)C)c(-c4c(Cl)c(Cl)cc5[nH]ncc45)c3C)C2)C1 (single isomer, unassigned) [Example 251a]	> 5 µM
C=CC(=O)N1CC2(CC(n3nc(N4CC[C@@H](CN5CCN(CCO)C(=O)C5)CC4(C)C)c(-c4c(Cl)c(Cl)cc5[nH]ncc45)c3C)C2)C1 (single isomer, unassigned) [Example 251b]	0.009 µM
C=CC(=O)N1CC2(CC(n3nc(N4CC[C@@H](CN(C)CC(=O)N5CCCC5)CC4(C)C)c(-c4c(Cl)c(Cl)cc5[nH]ncc45)c3C)C2)C1 (single isomer, unassigned) [Example 252a]	> 5 µM
C=CC(=O)N1CC2(CC(n3nc(N4CC[C@@H](CN(C)CC(=O)N5CCCC5)CC4(C)C)c(-c4c(Cl)c(Cl)cc5[nH]ncc45)c3C)C2)C1 (single isomer, unassigned) [Example 252b]	0.006 µM

SMILES	IC50
C=CC(=O)N1CC2(CC(n3nc(N4CC[C@@H](CN(CCO)CCOC)CC4(C)C)c(-c4c(Cl)c(Cl)cc5[nH]ncc45)c3C)C2)C1 (single isomer, unassigned) [Example 253a]	1.5 µM
C=CC(=O)N1CC2(CC(n3nc(N4CC[C@@H](CN(CCO)CCOC)CC4(C)C)c(-c4c(Cl)c(Cl)cc5[nH]ncc45)c3C)C2)C1 (single isomer, unassigned) [Example 253b]	0.008 µM
C=CC(=O)N1CC2(CC(n3nc(N4CC[C@@H](CN5CC6(CCS(=O)(=O)C6)C5)CC4(C)C)c(-c4c(Cl)c(Cl)cc5[nH]ncc45)c3C)C2)C1 (single isomer, unassigned) [Example 254a]	2.6 µM
C=CC(=O)N1CC2(CC(n3nc(N4CC[C@@H](CN5CC6(CCS(=O)(=O)C6)C5)CC4(C)C)c(-c4c(Cl)c(Cl)cc5[nH]ncc45)c3C)C2)C1 (single isomer, unassigned) [Example 254b]	0.008 µM
C=CC(=O)N1CC2(CC(n3nc(N4CC[C@@H](CN5CCN(C6COC6)CC5)CC4(C)C)c(-c4c(Cl)ccc5[nH]ncc45)c3C)C2)C1 (single isomer, unassigned) [Example 255a]	3.3 µM
C=CC(=O)N1CC2(CC(n3nc(N4CC[C@@H](CN5CCN(C6COC6)CC5)CC4(C)C)c(-c4c(Cl)ccc5[nH]ncc45)c3C)C2)C1 (single isomer, unassigned) [Example 255b]	0.084 µM
C=CC(=O)N1CC2(CC(n3nc(N4CC[C@@H](CN5CCN(CCOC)C(=O)C5)CC4(C)C)c(-c4c(Cl)c(Cl)cc5[nH]ncc45)c3C)C2)C1 (single isomer, unassigned) [Example 256a]	1.3 µM
C=CC(=O)N1CC2(CC(n3nc(N4CC[C@@H](CN5CCN(CCOC)C(=O)C5)CC4(C)C)c(-c4c(Cl)c(Cl)cc5[nH]ncc45)c3C)C2)C1 (single isomer, unassigned) [Example 256b]	0.01 µM
C=CC(=O)N1CC2(CC(n3nc(N4CC[C@@H](CN5CC6CC6(O)C5)CC4(C)C)c(-c4c(Cl)c(Cl)cc5[nH]ncc45)c3C)C2)C1 (single isomer, unassigned) [Example 257b]	0.012 µM
C=CC(=O)N1CC2(CC(n3nc(N4CC[C@@H](CN5CC6CC6(O)C5)CC4(C)C)c(-c4c(Cl)c(Cl)cc5[nH]ncc45)c3C)C2)C1 (single isomer, unassigned) [Example 258b]	0.022 µM
C=CC(=O)N1CC2(CC(n3nc(N4CC[C@@H](CN5CC6OCCN(C)C6C5)CC4(C)C)c(-c4c(Cl)c(Cl)cc5[nH]ncc45)c3C)C2)C1 (single isomer, unassigned) [Example 259a, 1-(6-(4-(5,6-dichloro-1H-indazol-4-yl)-3-((R)-2,2-dimethyl-4-(((4aR*,7aS*)-4-methylhexahydropyrrolo[3,4-b][1,4]oxazin-6(2H)-yl)methyl)piperidin-1-yl)-5-methyl-1H-pyrazol-1-yl)-2-azaspiro[3.3]heptan-2-yl)prop-2-en-1-one]	0.779 µM
C=CC(=O)N1CC2(CC(n3nc(N4CC[C@@H](CN5CC6OCCN(C)C6C5)CC4(C)C)c(-c4c(Cl)c(Cl)cc5[nH]ncc45)c3C)C2)C1 (single isomer, unassigned) [Example 259b, 1-(6-(4-(5,6-dichloro-1H-indazol-4-yl)-3-((R)-2,2-dimethyl-4-(((4aR*,7aS*)-4-methylhexahydropyrrolo[3,4-b][1,4]oxazin-6(2H)-yl)methyl)piperidin-1-yl)-5-methyl-1H-pyrazol-1-yl)-2-azaspiro[3.3]heptan-2-yl)prop-2-en-1-one]	0.01 µM
C=CC(=O)N1CC2(CC(n3nc(N4CC[C@@H](CN5CC6OCCN(C)C6C5)CC4(C)C)c(-c4c(Cl)c(Cl)cc5[nH]ncc45)c3C)C2)C1 (single isomer, unassigned) [Example 260a, 1-(6-(4-(5,6-dichloro-1H-indazol-4-yl)-3-((R)-2,2-dimethyl-4-(((4aR*,7aS*)-4-methylhexahydropyrrolo[3,4-b][1,4]oxazin-6(2H)-yl)methyl)piperidin-1-yl)-5-methyl-1H-pyrazol-1-yl)-2-azaspiro[3.3]heptan-2-yl)prop-2-en-1-one]	> 5 µM
C=CC(=O)N1CC2(CC(n3nc(N4CC[C@@H](CN5CC6OCCN(C)C6C5)CC4(C)C)c(-c4c(Cl)c(Cl)cc5[nH]ncc45)c3C)C2)C1 (single isomer, unassigned) [Example 260b, 1-(6-(4-(5,6-dichloro-1H-indazol-4-yl)-3-((R)-2,2-dimethyl-4-(((4aR*,7aS*)-4-methylhexahydropyrrolo[3,4-b][1,4]oxazin-6(2H)-yl)methyl)piperidin-1-yl)-5-methyl-1H-pyrazol-1-yl)-2-azaspiro[3.3]heptan-2-yl)prop-2-en-1-one]	0.009 µM
C=CC(=O)N1CC2(CC(n3nc(N4CC[C@@H](CN5CCCC6CN(C)C(=O)C65)CC4(C)C)c(-c4c(Cl)c(Cl)cc5[nH]ncc45)c3C)C2)C1 (single isomer, unassigned) [Example 261a, (4aR*,7aR*)-1-(((R)-1-(1-(2-acryloyl-2-azaspiro[3.3]heptan-6-yl)-4-(5,6-dichloro-1H-indazol-4-yl)-5-methyl-1H-pyrazol-3-yl)-2,2-dimethylpiperidin-4-yl)methyl)-6-methyloctahydro-7H-pyrrolo[3,4-b]pyridin-7-one]	> 5 µM
C=CC(=O)N1CC2(CC(n3nc(N4CC[C@@H](CN5CCCC6CN(C)C(=O)C65)CC4(C)C)c(-c4c(Cl)c(Cl)cc5[nH]ncc45)c3C)C2)C1 (single isomer, unassigned) [Example 261b, (4aR*,7aR*)-1-(((R)-1-(1-(2-acryloyl-2-azaspiro[3.3]heptan-6-yl)-4-(5,6-dichloro-1H-indazol-4-yl)-5-methyl-1H-pyrazol-3-yl)-2,2-dimethylpiperidin-4-yl)methyl)-6-methyloctahydro-7H-pyrrolo[3,4-b]pyridin-7-one]	0.015 µM
